Measured values: ChEMBL document CHEMBL3045223, “Synthesis, nematicidal and antimicrobial properties of Bis-[4-methoxy-3-[3-(4-fluorophenyl)-6-(4-methylphenyl)-2(aryl)-tetrahydro-2H-pyrazolo[3,4-d]thiazol-5-yl]phenyl]methanes” (2009)
≈ marks a conversion by molar mass, not a printed value. Calls of active or inactive are those of the source. The rule behind the calls is not given here.

Test system: Klebsiella aerogenes
Test: Antibacterial activity against Enterobacter aerogenes MTCC 39 assessed as inhibition zones at 300 ug/disk at 37 degC for 24 hr
Assay type: functional
Conditions: MTCC 39, 24 h, read-out: IZ

Row | Structure (SMILES) | zone of inhibition at 300 µg/disc [mm]
1 | COc1ccc(Cc2ccc(OC)c(C3SC4C(=NN(c5ccccc5)C4c4ccc(F)cc4)N3c3ccc(Cl)cc3)c2)cc1C1SC2C(=NN(c3ccccc3)C2c2ccc(F)cc2)N1c1ccc(Cl)cc1 (configuration not stated) | 22

Test system: Trichophyton mentagrophytes
Test: Antifungal activity against Trichophyton mentagrophytes IFO 40996 assessed as growth inhibition at 37 degC for 48 hr
Assay type: functional
Conditions: IFO 40996, 48 h

Row | Structure (SMILES) | MBC [µg/mL] | MIC [µg/mL]
2 | COc1ccc(Cc2ccc(OC)c(C3SC4C(=NN(c5ccccc5)C4c4ccc(F)cc4)N3c3ccc(Cl)cc3)c2)cc1C1SC2C(=NN(c3ccccc3)C2c2ccc(F)cc2)N1c1ccc(Cl)cc1 (configuration not stated) | 12.5 (≈ 12 µM) | 6.25 (≈ 5.99 µM)

Test system: Pseudomonas aeruginosa
Test: Antibacterial activity against Pseudomonas aeruginosa MTCC 741 assessed as inhibition zones at 300 ug/disk at 37 degC for 24 hr
Assay type: functional
Conditions: MTCC 741, 24 h, read-out: IZ

Row | Structure (SMILES) | zone of inhibition at 300 µg/disc [mm]
3 | COc1ccc(Cc2ccc(OC)c(C3SC4C(=NN(c5ccccc5)C4c4ccc(F)cc4)N3c3ccc(Cl)cc3)c2)cc1C1SC2C(=NN(c3ccccc3)C2c2ccc(F)cc2)N1c1ccc(Cl)cc1 (configuration not stated) | 19

Test system: Trichophyton rubrum
Test: Antifungal activity against Trichophyton rubrum IFO 9185 assessed as growth inhibition at 300 ug/disk at 37 degC for 48 hr
Assay type: functional
Conditions: IFO 9185, 48 h, read-out: IZ

Row | Structure (SMILES) | zone of inhibition at 300 µg/disc [mm]
4 | COc1ccc(Cc2ccc(OC)c(C3SC4C(=NN(c5ccccc5)C4c4ccc(F)cc4)N3c3ccc(Cl)cc3)c2)cc1C1SC2C(=NN(c3ccccc3)C2c2ccc(F)cc2)N1c1ccc(Cl)cc1 (configuration not stated) | 17

Test system: Lysinibacillus sphaericus
Test: Antibacterial activity against Lysinibacillus sphaericus MTCC 11 assessed as growth arrest at 37 degC for 24 hr
Assay type: functional
Conditions: MTCC 11, 24 h

Row | Structure (SMILES) | MBC [µg/mL] | MIC [µg/mL]
5 | COc1ccc(Cc2ccc(OC)c(C3SC4C(=NN(c5ccccc5)C4c4ccc(F)cc4)N3c3ccc(Cl)cc3)c2)cc1C1SC2C(=NN(c3ccccc3)C2c2ccc(F)cc2)N1c1ccc(Cl)cc1 (configuration not stated) | 50 (≈ 47.9 µM) | 12.5 (≈ 12 µM)

Test system: Chromobacterium violaceum
Test: Antibacterial activity against Chromobacterium violaceum MTCC 2656 assessed as inhibition zones at 300 ug/disk at 37 degC for 24 hr
Assay type: functional
Conditions: MTCC 2656, 24 h, read-out: IZ

Row | Structure (SMILES) | zone of inhibition at 300 µg/disc [mm]
6 | COc1ccc(Cc2ccc(OC)c(C3SC4C(=NN(c5ccccc5)C4c4ccc(F)cc4)N3c3ccc(Cl)cc3)c2)cc1C1SC2C(=NN(c3ccccc3)C2c2ccc(F)cc2)N1c1ccc(Cl)cc1 (configuration not stated) | 20

Test system: Pseudomonas aeruginosa
Test: Antibacterial activity against Pseudomonas aeruginosa MTCC 741 assessed as growth arrest at 37 degC for 24 hr
Assay type: functional
Conditions: MTCC 741, 24 h

Row | Structure (SMILES) | MBC [µg/mL] | MIC [µg/mL]
7 | COc1ccc(Cc2ccc(OC)c(C3SC4C(=NN(c5ccccc5)C4c4ccc(F)cc4)N3c3ccc(Cl)cc3)c2)cc1C1SC2C(=NN(c3ccccc3)C2c2ccc(F)cc2)N1c1ccc(Cl)cc1 (configuration not stated) | 12.5 (≈ 12 µM) | 6.25 (≈ 5.99 µM)

Test system: Candida albicans
Test: Antifungal activity against Candida albicans ATCC 10231 assessed as growth inhibition at 37 degC for 48 hr
Assay type: functional
Conditions: ATCC 10231, 48 h

Row | Structure (SMILES) | MBC [µg/mL] | MIC [µg/mL]
8 | COc1ccc(Cc2ccc(OC)c(C3SC4C(=NN(c5ccccc5)C4c4ccc(F)cc4)N3c3ccc(Cl)cc3)c2)cc1C1SC2C(=NN(c3ccccc3)C2c2ccc(F)cc2)N1c1ccc(Cl)cc1 (configuration not stated) | 6.25 (≈ 5.99 µM) | 6.25 (≈ 5.99 µM)

Test system: Bacillus subtilis
Test: Antibacterial activity against Bacillus subtilis MTCC 441 assessed as inhibition zones at 300 ug/disk at 37 degC for 24 hr
Assay type: functional
Conditions: MTCC 441, 24 h, read-out: IZ

Row | Structure (SMILES) | zone of inhibition at 300 µg/disc [mm]
9 | COc1ccc(Cc2ccc(OC)c(C3SC4C(=NN(c5ccccc5)C4c4ccc(F)cc4)N3c3ccc(Cl)cc3)c2)cc1C1SC2C(=NN(c3ccccc3)C2c2ccc(F)cc2)N1c1ccc(Cl)cc1 (configuration not stated) | 18

Test system: Candida albicans
Test: Antifungal activity against Candida albicans ATCC 10231 assessed as growth inhibition at 300 ug/disk at 37 degC for 48 hr
Assay type: functional
Conditions: not given

Row | Structure (SMILES) | inhibition zone (IZ)
10 | COc1ccc(Cc2ccc(OC)c(C3SC4C(=NN(c5ccccc5)C4c4ccc(F)cc4)N3c3ccc(Cl)cc3)c2)cc1C1SC2C(=NN(c3ccccc3)C2c2ccc(F)cc2)N1c1ccc(Cl)cc1 (configuration not stated) | inactive

Test system: Trichophyton rubrum
Test: Antifungal activity against Trichophyton rubrum IFO 9185 assessed as growth inhibition at 37 degC for 48 hr
Assay type: functional
Conditions: IFO 9185, 48 h

Row | Structure (SMILES) | MBC [µg/mL] | MIC [µg/mL]
11 | COc1ccc(Cc2ccc(OC)c(C3SC4C(=NN(c5ccccc5)C4c4ccc(F)cc4)N3c3ccc(Cl)cc3)c2)cc1C1SC2C(=NN(c3ccccc3)C2c2ccc(F)cc2)N1c1ccc(Cl)cc1 (configuration not stated) | 12.5 (≈ 12 µM) | 12.5 (≈ 12 µM)

Test system: Staphylococcus aureus
Test: Antibacterial activity against Staphylococcus aureus MTCC 96 assessed as growth arrest at 37 degC for 24 hr
Assay type: functional
Conditions: MTCC 96, 24 h

Row | Structure (SMILES) | MBC [µg/mL] | MIC [µg/mL]
12 | COc1ccc(Cc2ccc(OC)c(C3SC4C(=NN(c5ccccc5)C4c4ccc(F)cc4)N3c3ccc(Cl)cc3)c2)cc1C1SC2C(=NN(c3ccccc3)C2c2ccc(F)cc2)N1c1ccc(Cl)cc1 (configuration not stated) | 50 (≈ 47.9 µM) | 25 (≈ 23.9 µM)

Test system: Aspergillus fumigatus
Test: Antifungal activity against Aspergillus fumigatus HIC 6094 assessed as growth inhibition at 37 degC for 48 hr
Assay type: functional
Conditions: HIC 6094, 48 h

Row | Structure (SMILES) | MBC [µg/mL] | MIC [µg/mL]
13 | COc1ccc(Cc2ccc(OC)c(C3SC4C(=NN(c5ccccc5)C4c4ccc(F)cc4)N3c3ccc(Cl)cc3)c2)cc1C1SC2C(=NN(c3ccccc3)C2c2ccc(F)cc2)N1c1ccc(Cl)cc1 (configuration not stated) | 25 (≈ 23.9 µM) | 12.5 (≈ 12 µM)

Test system: Lysinibacillus sphaericus
Test: Antibacterial activity against Lysinibacillus sphaericus MTCC 11 assessed as inhibition zones at 300 ug/disk at 37 degC for 24 hr
Assay type: functional
Conditions: MTCC 11, 24 h, read-out: IZ

Row | Structure (SMILES) | zone of inhibition at 300 µg/disc [mm]
14 | COc1ccc(Cc2ccc(OC)c(C3SC4C(=NN(c5ccccc5)C4c4ccc(F)cc4)N3c3ccc(Cl)cc3)c2)cc1C1SC2C(=NN(c3ccccc3)C2c2ccc(F)cc2)N1c1ccc(Cl)cc1 (configuration not stated) | 21

Test system: Klebsiella aerogenes
Test: Antibacterial activity against Enterobacter aerogenes MTCC 39 assessed as growth arrest at 37 degC for 24 hr
Assay type: functional
Conditions: MTCC 39, 24 h

Row | Structure (SMILES) | MBC [µg/mL] | MIC [µg/mL]
15 | COc1ccc(Cc2ccc(OC)c(C3SC4C(=NN(c5ccccc5)C4c4ccc(F)cc4)N3c3ccc(Cl)cc3)c2)cc1C1SC2C(=NN(c3ccccc3)C2c2ccc(F)cc2)N1c1ccc(Cl)cc1 (configuration not stated) | 25 (≈ 23.9 µM) | 12.5 (≈ 12 µM)

Test system: Trichophyton mentagrophytes
Test: Antifungal activity against Trichophyton mentagrophytes IFO 40996 assessed as growth inhibition at 300 ug/disc at 37 degC for 48 hr
Assay type: functional
Conditions: not given

Row | Structure (SMILES) | inhibition zone (IZ)
16 | COc1ccc(Cc2ccc(OC)c(C3SC4C(=NN(c5ccccc5)C4c4ccc(F)cc4)N3c3ccc(Cl)cc3)c2)cc1C1SC2C(=NN(c3ccccc3)C2c2ccc(F)cc2)N1c1ccc(Cl)cc1 (configuration not stated) | inactive

Test system: Aspergillus fumigatus
Test: Antifungal activity against Aspergillus fumigatus HIC 6094 assessed as growth inhibition at 300 ug/disc at 37 degC for 48 hr
Assay type: functional
Conditions: not given

Row | Structure (SMILES) | inhibition zone (IZ)
17 | COc1ccc(Cc2ccc(OC)c(C3SC4C(=NN(c5ccccc5)C4c4ccc(F)cc4)N3c3ccc(Cl)cc3)c2)cc1C1SC2C(=NN(c3ccccc3)C2c2ccc(F)cc2)N1c1ccc(Cl)cc1 (configuration not stated) | inactive

Test system: Staphylococcus aureus
Test: Antibacterial activity against Staphylococcus aureus MTCC 96 assessed as inhibition zones at 300 ug/disc at 37 degC for 24 hr
Assay type: functional
Conditions: MTCC 96, 24 h, read-out: IZ

Row | Structure (SMILES) | zone of inhibition at 300 µg/disc [mm]
18 | COc1ccc(Cc2ccc(OC)c(C3SC4C(=NN(c5ccccc5)C4c4ccc(F)cc4)N3c3ccc(Cl)cc3)c2)cc1C1SC2C(=NN(c3ccccc3)C2c2ccc(F)cc2)N1c1ccc(Cl)cc1 (configuration not stated) | 20

Test system: Bacillus subtilis
Test: Antibacterial activity against Bacillus subtilis MTCC 441 assessed as growth arrest at 37 degC for 24 hr
Assay type: functional
Conditions: MTCC 441, 24 h

Row | Structure (SMILES) | MBC [µg/mL] | MIC [µg/mL]
19 | COc1ccc(Cc2ccc(OC)c(C3SC4C(=NN(c5ccccc5)C4c4ccc(F)cc4)N3c3ccc(Cl)cc3)c2)cc1C1SC2C(=NN(c3ccccc3)C2c2ccc(F)cc2)N1c1ccc(Cl)cc1 (configuration not stated) | 25 (≈ 23.9 µM) | 6.25 (≈ 5.99 µM)

Test system: Caenorhabditis elegans
Test: Nematicidal activity against Caenorhabditis elegans assessed as immobility
Assay type: functional
Conditions: read-out: LD50 (the source's name)

Row | Structure (SMILES) | LC50 [µg/mL]
20 | COc1ccc(Cc2ccc(OC)c(C3SC4C(=NN(c5ccccc5)C4c4ccc(F)cc4)N3c3ccc(Cl)cc3)c2)cc1C1SC2C(=NN(c3ccccc3)C2c2ccc(F)cc2)N1c1ccc(Cl)cc1 (configuration not stated) | 650 (≈ 623 µM)

Test system: Chromobacterium violaceum
Test: Antibacterial activity against Chromobacterium violaceum MTCC 2656 assessed as growth arrest at 37 degC for 24 hr
Assay type: functional
Conditions: MTCC 2656, 24 h

Row | Structure (SMILES) | MBC [µg/mL] | MIC [µg/mL]
21 | COc1ccc(Cc2ccc(OC)c(C3SC4C(=NN(c5ccccc5)C4c4ccc(F)cc4)N3c3ccc(Cl)cc3)c2)cc1C1SC2C(=NN(c3ccccc3)C2c2ccc(F)cc2)N1c1ccc(Cl)cc1 (configuration not stated) | 25 (≈ 23.9 µM) | 12.5 (≈ 12 µM)

Test system: Ditylenchus myceliophagus
Test: Nematicidal activity against Ditylenchus myceliophagus assessed as immobility
Assay type: functional
Conditions: read-out: LD50 (the source's name)

Row | Structure (SMILES) | LC50 [µg/mL]
22 | COc1ccc(Cc2ccc(OC)c(C3SC4C(=NN(c5ccccc5)C4c4ccc(F)cc4)N3c3ccc(Cl)cc3)c2)cc1C1SC2C(=NN(c3ccccc3)C2c2ccc(F)cc2)N1c1ccc(Cl)cc1 (configuration not stated) | 810 (≈ 776 µM)
